Data: US9198894B2, “Uses of 15-benzylidene-14-deoxy-11,12-didehydroandrographolide derivatives in the preparation of antineoplastic drugs” (Zhengzhou University, priority 2010, dated 2015)
Where “and” joins values, the source holds several entries; their conditions need not be identical. Equal values may be shown once. Marks after values point to notes of the source that are not given here.

Columns and labels:
[1] = system: IL-1β; assay type: in vivo, mouse; details: mouse, in vivo, 30 mg/kg
[2] = system: Murine hepatoma H22; test: Anti-tumor and anti-angiogenesis effects on H22 tumor-bearing mice; assay type: in vivo, mouse; details: H22 mice, 20.00 mg/kg ig once a day 7 d
Text: 1) Animals: Kunming mice of clean grade, half male and half female, body weight 20±2 g, were purchased from the experimental animal center of Henan Province, China. Qualified Certificate number: SCXK (Yu) 2005-0001.
2) Cells: Murine hepatoma H22 cells were presently obtained from Henan Academy of Medical and Pharmaceutical Sciences (Zhengzhou, China).
Cyclophosphamide (Cyc) was produced by Tianjin Jingshi Pharmaceutical Co., Ltd., China (approval number of medicine: H12021006). Gelatin and carmine red were supplied by Sigma Chemical (St. Louis, Mo., U.S.A). All other chemicals and reagents were of the highest commercial grade available. All drugs were prepared with normal saline emulsified with Tween-80 (0.1% v/v) and dispersed in carboxymethylcellulose (0.5% v/v). 10% (W/V) carmine solution was prepared with salt solution containing 5% (W/V) gelatin which should be used immediately after preparation. The rest of medicines and reagents and the methods for preparation were the same with that of EXAMPLE 1.
4) Method: The H22 cells after in vivo passage for 7 d were diluted with physiological saline to adjust to a concentration of 1×10^7/mL, injected to the armpit of right forelimb of mice subcutaneously (0.2 ml/mouse), then mice were divided into 10 groups (n=12; 6 male and 6 female per group) randomly. 24 h later each group of mice was administrated intragastrically (ig; 0.2 ml/10 g) once a day continuously for 7 d with vehicle (tumor control group and control group), Cyc (standard control), or compounds at the tested doses. After the last drug administration and a following fasting of 8 h, each mouse was anesthetized with 1% pentobarbital in normal saline solution (80 mg/kg; ip). Mice of control group were injected with 5% gelatin in normal saline solution (40) via the tail vein (1 ml/mouse); whereas mice of other groups were injected replaced by 10% carmine red and 5% gelatin in normal saline solution (40). Mice were killed, then freezed in a refrigerator at −20 for 2 h to solidify. Tumors were segregated, weighed and homogenized with 3 M NaOH solution (10 ml/g tumor). The homogenate supernatant was prepared by being centrifuged for 20 min at 14000 rpm, and the absorbance at 490 nm was assayed using a PowerWaveX Microplate Scanning Spectrophotometer (Bio-tek Instruments, Inc). The carmine red content was calculated based on the standard curve. The vascular index (VI) expressed as milligram of carmine red per gram of tumor tissue. The inhibition ratio (IR) of tumor growth was calculated using the formula: IR (%)=[(Wc−Wt)/Wc]×100%, where Wc is the average tumor weight of the control group, and Wt is that of the drug treatment group. Data were expressed as mean±SD and statistical analysis was performed by SPSS Statistics 17.0 using a one-way analysis of variance (ANOVA) followed by unpaired t-test. A value of P<0.05 was considered statistically significant.

[3] = system: TNF-α; assay type: in vivo, mouse; details: mouse, in vivo, 30 mg/kg
[4] = system: B16-F10 mouse melanoma cells; assay type: in vivo; details: B16-F10, C57BL/6 mice, 30.00 mg/kg ig 24 d
Method: 1) Animals: A total of 20 C57BL/6 male mice of clean grade [Number of Animal License: SCXK (Xiang) 2009-0004], weighing 18-22 g, were purchased from Hunan Slca Jingda Experimental Animal Center Company, Ltd., China.
2) Cells: B16-F10 mouse melanoma cells were purchased from Nanjing KeyGen Biotech. Co. Ltd., China.
(§1) 4) Method: B16-F10 cells in logarithmic growth phase were trypsinized, then resuspended in RPMI1640 medium containing 10% fetal bovine serum and centrifuged at 1000 rpm for 5 min. The supernatant was removed and sterile PBS was added to prepare single-cell suspension (10^7/mL). The murine melanoma lung metastasis model was established in mice via caudal vein injection of B16-F10 cells (0.2 ml/mouse). Mice were randomly divided into 4 groups (n=5) according to body weight, and 24 h later they were administrated intragastrically (ig; 0.2 ml/10 g) once a day continuously for 24 d with vehicle (tumor control group), Cyc (30 mg/kg), compound 3 at 0.85 mmol/kg and 1.10 mmol/kg. Mice were weighed and blood was collected by removing the eyeball at 24 h after the last administration. Sacrificed the mice, removed the lung and counted the number of melanoma nodules in lungs of mice under an anatomical lens. Serum obtained after centrifugation at 3000 rpm for 20 min (3K30 refrigerated centrifuge, Sigma, USA) was conserved at −20° C. Levels of TNF-α and IL-1β in serum were measured by ELISA method, which were performed in accordance with the instructions of the kits.
Data were expressed as mean±SD and statistical analysis was performed by SPSS Statistics 17.0 using a one-way analysis of variance (ANOVA) followed by unpaired t-test. A value of P<0.05 was considered statistically significant. The inhibition ratio (IR %) of lung metastasis was calculated as follows: IR %=(Nc−Nt)/Nc×100%, where Nc is the average number of nodules in lung tissues of vehicle, and Nt is that of mice treated with drugs.

[5] = assay type: in vivo, mouse; details: C57BL/6 mice, before vs 24 d after administration, Cyc 30 mg/kg ig
Method: as §1

[6] = system: S180 murine sarcoma; test: Growth, invasion and metastasis of S180 sarcoma in tumor-bearing mice; assay type: in vivo, mouse
Method: 1) Animals: Be the same with that of EXAMPLE 4.
2) Cells: The S180 murine sarcoma cells were obtained from Henan Academy of Medical and Pharmaceutical Sciences (Zhengzhou, China).
4) Method: Mice were randomly divided into 10 groups (n=12). The S180 cells after in vivo passage for 7 d were diluted with physiological saline to adjust to a concentration of 1×10^7/mL. The inoculation of tumor cells was conducted in two batches, those of tumor control group I and groups treated with compounds 1 or 3 were in batch 1, those of tumor control group II, Cyc group and the compound 2 groups were in batch 2. The mice were injected with S180 cells (0.2 ml/mouse) into the armpit of right forelimb subcutaneously, and 24 h later each group of mice was administrated intragastrically (ig; 0.2 ml/10 g) once a day continuously for 9 d with vehicle (tumor control group), Cyc (standard control), or compounds at the tested doses. On day 10, kill the mice, observe and record the degree of invasion and metastasis of tumor tissues, then the tumor tissues were segregated and weighed. The inhibition ratio (IR) of tumor growth was calculated by the following formula: IR (%)=[(Wc−Wt)/Wc]×100%, where Wc is the average tumor weight of the control group, and Wt is that of the treatment group. Data were expressed as mean±SD and statistical analysis was performed by SPSS Statistics 17.0 using a one-way analysis of variance (ANOVA) followed by unpaired t-test. A value of P<0.05 was considered statistically significant.

[7] = system: PC-3 human prostate carcinoma cells; test: Wound healing (two-dimensional migration) assay, PC-3; assay type: cell-based; details: PC-3, 10.00 μmol/l, 36 h (FIG. 1F)
Method: (§2) 1) Cell lines: Cell lines of 5637 human bladder carcinoma, Eca-109 human esophageal carcinoma, HT29 human colon cancer, SGC-7901 human gastric cancer, A549 human lung adenocarcinoma and PC-3 human prostate carcinoma were purchased from the Type Culture Collection of the Chinese Academy of Sciences, Shanghai, China.
3) Methods: The cells were trypsinized to generate a single-cell suspension and seeded in 96-well plates (200 μl/well), and incubated with medium containing 10% fetal bovine serum at 37 in a humidified atmosphere with 5% CO2. Following a 24 h incubation, the cells were starved for an additional 12 h in low-serum media (1% FBS). The cultures of Eca-109, HT29, 5637, SGC-7901, A549 and PC-3 were then scratched away with a 200-μl plastic pipette tip and rinsed twice with PBS to remove wound-derived loose and dislodged cells. […] The average scraped area in each well under each treatment condition was measured, and the percentage of inhibition against cell migration was calculated. % of inhibition=1−(A0−At)/(A′0−A′t)×100%, where, A0 and At are the areas of wound with compound treatment measured immediately and 24 or 36 h post-injury, respectively; A′0 and A′t are the areas of wound without compound treatment measured immediately and 24 or 36 h post-injury, respectively.

[8] = system: SGC-7901 human gastric cancer; test: Colony formation assay, SGC-7901; assay type: cell-based
Method: (§3) 1) Cell lines: Cell lines of SGC-7901 human gastric cancer, A549 human lung adenocarcinoma and Hela human cervical carcinoma were purchased from the Type Culture Collection of the Chinese Academy of Sciences, Shanghai, China.
(§4) 3) Method: Colony formation assay was used. The cells were trypsinized to generate a single-cell suspension and seeded in a 6-well plate at a density of 100 cells/well, then drug-containing medium was added to the well to make the final concentration of compound to 0, 1.25, 2.50, 5.00, 7.50, 10.00 μmol/L, respectively. The experiments were performed in duplicate, and the cells were cultured at 37 in a humidified atmosphere with 5% CO2. Terminate cell culture when the clones can be seen in the culture plate, then remove the culture medium, and wash twice with PBS, fix the cells with methanol (5 ml/well) for 15 min and stain the cells with hematoxylin-eosin stain. The number of clones which comprised more than 50 cells was counted under a TS100-F-PH microscope (Nikon Company, Japan). Calculate relative colony formation ratio (%) and the IC50 values. Relative colony formation ratio (%)=(colony number of drug-administration well/colony number of control well)×100%.

[9] = system: A549 human lung adenocarcinoma; test: Colony formation assay, A549; assay type: cell-based
Method: as §3, §4

[10] = system: 5637 human urinary bladder cancer cells; test: Wound healing (two-dimensional migration) assay, 5637; assay type: cell-based; details: 5637, 10.00 μmol/l, 24 h (FIG. 1C)
Method: as §2
3) Methods: The cells were trypsinized to generate a single-cell suspension and seeded in 96-well plates (200 μl/well), and incubated with medium containing 10% fetal bovine serum at 37 in a humidified atmosphere with 5% CO2. Following a 24 h incubation, the cells were starved for an additional 12 h in low-serum media (1% FBS). The cultures of Eca-109, HT29, 5637, SGC-7901, A549 and PC-3 were then scratched away with a 200-μl plastic pipette tip and rinsed twice with PBS to remove wound-derived loose and dislodged cells. The cells were cultured in replaced medium without or with compounds at final concentrations of 0, 2.50, 5.00 and 10.00 μmol/L, respectively. At least seven randomly selected views along the scraped line in each well were photographed immediately and 24 h and 36 h after incubation using a digital camera at 50× magnification. The average scraped area in each well under each treatment condition was measured, and the percentage of inhibition against cell migration was calculated. % of inhibition=1−(A0−At)/(A′0−A′t)×100%, where, A0 and At are the areas of wound with compound treatment measured immediately and 24 or 36 h post-injury, respectively; A′0 and A′t are the areas of wound without compound treatment measured immediately and 24 or 36 h post-injury, respectively.

[11] = system: Hela human cervical carcinoma; test: Colony formation assay, Hela; assay type: cell-based; details: Hela; read-out: Inhibition against tumor cell colony formation IC50
Method: as §3, §4

[12] = read-out: Inhibition against tumor cell colony formation IC50

**Q.** Which IL-1β in serum [1] does the source give for `O=P1(N(CCCl)CCCl)NCCCO1` (centres unmarked) [Cyc, Cyclophosphamide, reference compound] here?
**A.** Its IL-1β in serum is 41.58 ± 4.39 pg/mL.

**Q.** And the “IR (%) of tumor growth” value [2]?
**A.** Its value is 29.34* %.

**Q.** What about the Carmine contents ([2]; mean ± s) of the same compound?
**A.** The Carmine contents was 4.24 ± 2.29.

**Q.** What about the “VI (vascular index, mg carmine red per g tumor tissue)” value ([2]; mean ± s) of the same compound?
**A.** The value was 4.87 ± 1.13 mg/g.

**Q.** And the TNF-α in serum [3]?
**A.** The TNF-α in serum was 8.45 ± 9.54.

**Q.** And the “IR (%) of lung metastasis” value ([4]; 30 mg/kg)?
**A.** Its value is 47.92%.

**Q.** And the Lung index ([4]; mean ± s, n = 5)?
**A.** The Lung index was 6.66 ± 0.37 mg/g.

**Q.** And the “Nodule number (melanoma nodules in lungs)” value ([4]; mean ± s, n = 5)?
**A.** The value was 43.76 ± 11.70.

**Q.** What about the “Average increase in body weight” value [5] of the same compound?
**A.** The value was 0.7 g.

**Q.** What about the “IR (%) of S180 sarcoma growth” value ([6]; 30.00 mg/kg ig once a day 9 d) of the same compound?
**A.** Its value is 53.61% and 53.61 ± 12.43 %.

**Q.** What about the “Average invasion and metastasis grade” value ([6]; S180, grades 0-4, 30.00 mg/kg) of the same compound?
**A.** Its value is 3.67.

**Q.** And the “Mouse Number Grade 0” value ([6]; S180 invasion, Grade 0: no invasion, 30.00 mg/kg)?
**A.** Its value is 0.

**Q.** What about the “Mouse Number Grade 1” value ([6]; S180 invasion, Grade 1: invasion to right forelimb, 30.00 mg/kg) of the same compound?
**A.** Its value is 0.

**Q.** And the “Mouse Number Grade 2” value ([6]; S180 invasion, Grade 2: right forelimb and the left side of body, 30.00 mg/kg)?
**A.** The value was 0.

**Q.** What about the “Mouse Number Grade 3” value ([6]; S180 invasion, Grade 3: also the ribs and muscles in chest, 30.00 mg/kg) of the same compound?
**A.** Its value is 4.

**Q.** And the “Mouse Number Grade 4” value ([6]; S180 invasion, Grade 4: invasion into chest or abdominal cavity, 30.00 mg/kg)?
**A.** The value was 8.

**Q.** What does the source list for `C=C1CCC2C(C)(CO)C(O)CCC2(C)C1C=CC1=CC(=Cc2ccccc2)OC1=O` (centres unmarked) [Compound 4]?
**A.** Inhibitory effect on two-dimensional migration [7]: much stronger than that of other tumor cells; Inhibition of colony formation compared with andrographolide [8]: remarkably stronger than that of andrographolide; IC50 [8, 12]: 5.07 µM; Inhibition of colony formation compared with andrographolide [9]: remarkably stronger than that of andrographolide; IC50 [9, 12]: 4.51 µM; Inhibitory effect on two-dimensional migration [10]: much stronger than that of other tumor cells; IC50 [11]: 4.84 µM
